Read-outs that look alike come from different tables or passages of the source.
What was measured:
Type in all cases: in vivo
Sclerotinia sclerotiorum [1] = test: Seed treatment test, control efficacy against ascospore infection in soybean, greenhouse (Example A, Tests 1-6); conditions: for pest or weed control at 25 g/100 kg seed: soybean seed treatment 25 g a.i./100 kg seed; for pest or weed control at 50 g/100 kg seed: soybean seed treatment 50 g a.i./100 kg seed; for pest or weed control at 70 g/100 kg seed / pest or weed control at 140 g/100 kg seed / pest or weed control at 35 g/100 kg seed: read-out: Sclerotinia sclerotiorum Control efficacy %; for pest or weed control at 10 g/100 kg seed: soybean seed treatment 10 g a.i./100 kg seed
Description: (§1) The test is performed under greenhouse conditions.
(§2) Soybean seeds, treated to the desired dosages with the active compound solved in N-methyl-2-pyrrolidon and diluted with water, were sown in 6×6 cm pots (one seed per pot) filled with 1:1 mixture of steamed loam soil and quartz sand.
(§3) The plants were grown at 24° C. and 90% relative humidity in a greenhouse. Ascospores of Sclerotinia sclerotiorum were collected from 3 month old asci. Whole aerial surface of 19-25-day-old seedlings were sprayed with water suspension of the ascospores. The plants were kept for 48-96 hours in the dark at 24° C. and a relative humidity of 99%.
(§4) Assessment consisted of evaluation of infected area of the unifoliate leaves. Zero % means infection which corresponds to that of the untreated check, while an efficacy of 100% means that no infection was observed.
The control efficacy is based on % infected leaf area.
Moreover, the tests were performed with different batches of plants.

soybean plants [2] = test: Damage on plants after seed treatment, relative growth inhibition in non-inoculated plants (Example A, Tests 1-6)
Description: as §1, §2, §3

Sclerotinia sclerotiorum [3] = test: Spray test (dwarf beans), preventive control efficacy (Example B, Test 7); conditions: spray treatment 100 mg ai/Liter, dwarf bean, 10 days old plants, incubation 3 days
Description: (§5) Solvent: 24.5 parts by weight of acetone • 24.5 parts by weight of dimethylacetamide
(§6) Emulsifier: 1 part by weight of alkylaryl polyglycol ether
(§7) To produce a suitable preparation of active compound, 1 part by weight of active compound is mixed with the stated amounts of solvent and emulsifier, and the concentrate is diluted with water to the desired concentration.
(§8) To test for preventive activity, unifoliate leaves of 10 day-old plants are sprayed with the preparation of active compound. After the spray coating has dried on, 2 small pieces of agar covered with growth of Sclerotinia sclerotiorum are placed on each leaf. The inoculated plants are placed in a darkened chamber at approximately 20° C. and a relative atmospheric humidity of 100%.
3 days after the inoculation, the size of the lesions on the leaves is evaluated. 0% means an efficacy which corresponds to that of the untreated control, while an efficacy of 100% means that no disease is observed.

dwarf beans = test: Damage on plants in spray test (Example B, Test 7); conditions: spray treatment 100 mg ai/Liter, dwarf bean
Description: as §5, §6, §7, §8

Sclerotinia sclerotiorum [4] = test: Seed treatment test (soybean) with current standards, control efficacy (Example B, Test 8); conditions: soybean seed treatment 50 g a.i./100 kg seed, incubation 3 days, inoculation 27 days after sowing
Description: as §2
as §3, with “27 day-old” for “19-25-day-old”, “72” for “48-96”
as §4

soybean plants [5] = test: Damage on plants after seed treatment, emergence inhibition (Example B, Test 8); conditions: soybean seed treatment 50 g a.i./100 kg seed
Description: as §2
as §3, with “27 day-old” for “19-25-day-old”, “72” for “48-96”

[6] = Sclerotinia sclerotiorum, 72 h, Test 1, incubation 3 days, inoculation 19 days after sowing
[7] = Test 1, soybean seed treatment 25 g a.i./100 kg seed
[8] = Test 1, soybean seed treatment 50 g a.i./100 kg seed
[9] = Sclerotinia sclerotiorum, 96 h, Test 4, incubation 4 days, inoculation 25 days after sowing
[10] = Sclerotinia sclerotiorum, 48 h, Test 3, incubation 2 days, inoculation 20 days after sowing
[11] = Sclerotinia sclerotiorum, 72 h, Test 6, incubation 3 days, inoculation 22 days after sowing
[12] = Test 3, soybean seed treatment 70 g a.i./100 kg seed
[13] = Test 6, soybean seed treatment 70 g a.i./100 kg seed
[14] = Sclerotinia sclerotiorum, 48 h, Test 5, incubation 2 days, inoculation 21 days after sowing
[15] = Example A, soybean seed treatment
[16] = Sclerotinia sclerotiorum, 48 h, Test 3, soybean seed treatment 70 g a.i./100 kg seed, incubation 2 days, inoculation 20 days after sowing
[17] = Sclerotinia sclerotiorum, 48 h, Test 3, soybean seed treatment 140 g a.i./100 kg seed, incubation 2 days, inoculation 20 days after sowing
[18] = Sclerotinia sclerotiorum, 72 h, Test 6, soybean seed treatment 70 g a.i./100 kg seed, incubation 3 days, inoculation 22 days after sowing
[19] = Sclerotinia sclerotiorum, 72 h, Test 6, soybean seed treatment 140 g a.i./100 kg seed, incubation 3 days, inoculation 22 days after sowing
[20] = Test 6, soybean seed treatment 140 g a.i./100 kg seed

Structure (SMILES): CC(C)ON=C(CNC(=O)c1ccccc1C(F)(F)F)c1ncc(Cl)cc1Cl
- pest or weed control at 25 g/100 kg seed (Sclerotinia sclerotiorum [1]; [6]): 5%
- pest or weed control at 50 g/100 kg seed (Sclerotinia sclerotiorum [1]; [6]): 53%
- Damage on plants (relative growth inhibition in non-inoculated plants compared to untreated plants: in %) (soybean plants [2]; [7]): 0%
- Damage on plants (relative growth inhibition in non-inoculated plants compared to untreated plants: in %) (soybean plants [2]; [8]): 0%

Structure (SMILES): Cc1nc2c(F)c(F)ccc2cc1Oc1cccc(F)c1C(C)(C)O
- pest or weed control at 70 g/100 kg seed (Sclerotinia sclerotiorum [1]; Sclerotinia sclerotiorum, 96 h): 0%
- pest or weed control at 140 g/100 kg seed (Sclerotinia sclerotiorum [1]; Sclerotinia sclerotiorum, 96 h): 99%

Structure (SMILES): O=S(=O)(Nc1ncc(C(F)(F)F)cc1Cl)c1ccccc1Cl
- pest or weed control at 10 g/100 kg seed (Sclerotinia sclerotiorum [1]; [9]): 73%
- pest or weed control at 50 g/100 kg seed (Sclerotinia sclerotiorum [1]; [9]): 70%
- Damage on plants (relative growth inhibition in non-inoculated plants compared to untreated plants: in %) (soybean plants [2]; Test 4, soybean seed treatment 10 g a.i./100 kg seed): 17%
- Damage on plants (relative growth inhibition in non-inoculated plants compared to untreated plants: in %) (soybean plants [2]; Test 4, soybean seed treatment 50 g a.i./100 kg seed): 8%

Structure (SMILES): O=c1c2cc(F)ccc2nc(-n2cncn2)n1-c1ccc(Cl)cc1Cl [Fluquinconazole]
- pest or weed control at 25 g/100 kg seed (Sclerotinia sclerotiorum [1]; [10]): 83%
- pest or weed control at 50 g/100 kg seed (Sclerotinia sclerotiorum [1]; [10]): 86%
- pest or weed control at 25 g/100 kg seed (Sclerotinia sclerotiorum [1]; [11]): 0%
- pest or weed control at 50 g/100 kg seed (Sclerotinia sclerotiorum [1]; [11]): 2%
- Damage on plants (relative growth inhibition in non-inoculated plants compared to untreated plants: in %) (soybean plants [2]; Test 3, soybean seed treatment 25 g a.i./100 kg seed): 0%
- Damage on plants (relative growth inhibition in non-inoculated plants compared to untreated plants: in %) (soybean plants [2]; Test 3, soybean seed treatment 50 g a.i./100 kg seed): 0%
- Damage on plants (relative growth inhibition in non-inoculated plants compared to untreated plants: in %) (soybean plants [2]; Test 6, soybean seed treatment 25 g a.i./100 kg seed): 0%
- Damage on plants (relative growth inhibition in non-inoculated plants compared to untreated plants: in %) (soybean plants [2]; Test 6, soybean seed treatment 50 g a.i./100 kg seed): 0%

Structure (SMILES): N#Cc1ccccc1NC(=O)c1snc(Cl)c1Cl [Isotianil]
- pest or weed control at 35 g/100 kg seed (Sclerotinia sclerotiorum [1]; Sclerotinia sclerotiorum, 48 h): 46%
- pest or weed control at 70 g/100 kg seed (Sclerotinia sclerotiorum [1]; Sclerotinia sclerotiorum, 48 h): 65%
- pest or weed control at 35 g/100 kg seed (Sclerotinia sclerotiorum [1]; Sclerotinia sclerotiorum, 72 h): 15%
- pest or weed control at 70 g/100 kg seed (Sclerotinia sclerotiorum [1]; Sclerotinia sclerotiorum, 72 h): 18%
- Damage on plants (relative growth inhibition in non-inoculated plants compared to untreated plants: in %) (soybean plants [2]; Test 3, soybean seed treatment 35 g a.i./100 kg seed): 11%
- Damage on plants (relative growth inhibition in non-inoculated plants compared to untreated plants: in %) (soybean plants [2]; [12]): 0%
- Damage on plants (relative growth inhibition in non-inoculated plants compared to untreated plants: in %) (soybean plants [2]; Test 6, soybean seed treatment 35 g a.i./100 kg seed): 0%
- Damage on plants (relative growth inhibition in non-inoculated plants compared to untreated plants: in %) (soybean plants [2]; [13]): 0%

Structure (SMILES): CC(O)(Cn1cncn1)c1ccc(Oc2ccc(Cl)cc2)cc1C(F)(F)F (centres unmarked) [Mefentrifluconazole]
- pest or weed control at 10 g/100 kg seed (Sclerotinia sclerotiorum [1]; [14]): 90%
- pest or weed control at 25 g/100 kg seed (Sclerotinia sclerotiorum [1]; [14]): 84%
- Damage on plants (relative growth inhibition in non-inoculated plants compared to untreated plants: in %) (soybean plants [2]; Test 5, soybean seed treatment 10 g a.i./100 kg seed): 0%
- Damage on plants (relative growth inhibition in non-inoculated plants compared to untreated plants: in %) (soybean plants [2]; Test 5, soybean seed treatment 25 g a.i./100 kg seed): 10%

Structure (SMILES): O=C(Nc1ccccc1-c1ccc(F)c(F)c1)c1nccnc1C(F)(F)F [Pyraziflumid]
- control efficacy against ascospore infection of Sclerotinia Sclerotiorum (in words) (Sclerotinia sclerotiorum [1]; [15]): excellent control efficacy
- pest or weed control at 70 g/100 kg seed (Sclerotinia sclerotiorum [1]; [16]): 87%
- pest or weed control at 140 g/100 kg seed (Sclerotinia sclerotiorum [1]; [17]): 95%
- pest or weed control at 75 g/100 kg seed (Sclerotinia sclerotiorum [1]; Sclerotinia sclerotiorum, 48 h, Test 5, soybean seed treatment 75 g a.i./100 kg seed, incubation 2 days, inoculation 21 days after sowing): 98%
- pest or weed control at 25 g/100 kg seed (Sclerotinia sclerotiorum [1]; [6]): 96%
- pest or weed control at 50 g/100 kg seed (Sclerotinia sclerotiorum [1]; [6]): 95%
- pest or weed control at 70 g/100 kg seed (Sclerotinia sclerotiorum [1]; [18]): 36%
- pest or weed control at 140 g/100 kg seed (Sclerotinia sclerotiorum [1]; [19]): 33%
- pest or weed control at 70 g/100 kg seed (Sclerotinia sclerotiorum [1]; Sclerotinia sclerotiorum, 96 h, Test 2, soybean seed treatment 70 g a.i./100 kg seed, incubation 4 days, inoculation 22 days after sowing): 58%
- pest or weed control at 140 g/100 kg seed (Sclerotinia sclerotiorum [1]; Sclerotinia sclerotiorum, 96 h, Test 2, soybean seed treatment 140 g a.i./100 kg seed, incubation 4 days, inoculation 22 days after sowing): 86%
- pest or weed control at 70 g/100 kg seed (Sclerotinia sclerotiorum [1]; Sclerotinia sclerotiorum, 96 h, Test 4, soybean seed treatment 70 g a.i./100 kg seed, incubation 4 days, inoculation 25 days after sowing): 80%
- pest or weed control at 140 g/100 kg seed (Sclerotinia sclerotiorum [1]; Sclerotinia sclerotiorum, 96 h, Test 4, soybean seed treatment 140 g a.i./100 kg seed, incubation 4 days, inoculation 25 days after sowing): 90%
- damage on soybean plants (in words) (soybean plants [2]; [15]): without giving any damage
- Damage on plants (relative growth inhibition in non-inoculated plants compared to untreated plants: in %) (soybean plants [2]; [7]): 0%
- Damage on plants (relative growth inhibition in non-inoculated plants compared to untreated plants: in %) (soybean plants [2]; [8]): 0%
- Damage on plants (relative growth inhibition in non-inoculated plants compared to untreated plants: in %) (soybean plants [2]; Test 2, soybean seed treatment 70 g a.i./100 kg seed): 0%
- Damage on plants (relative growth inhibition in non-inoculated plants compared to untreated plants: in %) (soybean plants [2]; Test 2, soybean seed treatment 140 g a.i./100 kg seed): 0%
- Damage on plants (relative growth inhibition in non-inoculated plants compared to untreated plants: in %) (soybean plants [2]; [12]): 0%
- Damage on plants (relative growth inhibition in non-inoculated plants compared to untreated plants: in %) (soybean plants [2]; Test 3, soybean seed treatment 140 g a.i./100 kg seed): 0%
- Damage on plants (relative growth inhibition in non-inoculated plants compared to untreated plants: in %) (soybean plants [2]; Test 4, soybean seed treatment 70 g a.i./100 kg seed): 0%
- Damage on plants (relative growth inhibition in non-inoculated plants compared to untreated plants: in %) (soybean plants [2]; Test 4, soybean seed treatment 140 g a.i./100 kg seed): 0%
- Damage on plants (relative growth inhibition in non-inoculated plants compared to untreated plants: in %) (soybean plants [2]; Test 5, soybean seed treatment 75 g a.i./100 kg seed): 0%
- Damage on plants (relative growth inhibition in non-inoculated plants compared to untreated plants: in %) (soybean plants [2]; [13]): 0%
- Damage on plants (relative growth inhibition in non-inoculated plants compared to untreated plants: in %) (soybean plants [2]; [20]): 30%

Structure (SMILES): CC1(C)N=C(c2cnc3ccccc3c2)c2ccccc2C1(F)F [Quinofumelin]
- pest or weed control at 70 g/100 kg seed (Sclerotinia sclerotiorum [1]; [18]): 16%
- pest or weed control at 140 g/100 kg seed (Sclerotinia sclerotiorum [1]; [19]): 1%
- Damage on plants (relative growth inhibition in non-inoculated plants compared to untreated plants: in %) (soybean plants [2]; [13]): 0%
- Damage on plants (relative growth inhibition in non-inoculated plants compared to untreated plants: in %) (soybean plants [2]; [20]): 0%

Structure (SMILES): CC1(C)N=C(c2cnc3ccccc3c2)c2ccccc2C1(F)F [drawing 23]
- pest or weed control at 70 g/100 kg seed (Sclerotinia sclerotiorum [1]; [16]): 72%
- pest or weed control at 140 g/100 kg seed (Sclerotinia sclerotiorum [1]; [17]): 96%

Structure (SMILES): O=C(NCCc1ncc(C(F)(F)F)cc1Cl)c1ccccc1C(F)(F)F [fluopyram]
- Sclerotinia sclerotiorum Control efficacy % (Sclerotinia sclerotiorum [3]): 100%
- Damage on plants (in %) (dwarf beans): 0%
- Sclerotinia sclerotiorum Control efficacy % (Sclerotinia sclerotiorum [4]): 68%
- Damage on plants (emergence inhibition in %) (soybean plants [5]): 25%

Structure (SMILES): CON(C(=O)c1cn(C)nc1C(F)F)C(C)Cc1c(Cl)cc(Cl)cc1Cl (centres unmarked) [pydiflumetofen]
- Sclerotinia sclerotiorum Control efficacy % (Sclerotinia sclerotiorum [3]): 100%
- Damage on plants (in %) (dwarf beans): 0%
- Sclerotinia sclerotiorum Control efficacy % (Sclerotinia sclerotiorum [4]): 0%
- Damage on plants (emergence inhibition in %) (soybean plants [5]): 0%
